Earlier results in publication PMC5664587 (Fluids and Barriers of the CNS, 2017).

Details: brain homogenate

CC(C)NCC(O)COc1cccc2ccccc12 (stereo not shown) [propranolol]
fu,brain, previously reported: 0.029
